US6569866B2, “Sustained-release nalmefene preparations and method” (priority 1996, dated 2003)

Assays:
[1] = per os administration; cited from earlier work
[2] = molecular target: intraspinal kappa receptors (Rattus norvegicus, UniProt P34975); conditions: after spinal cord injury; Bakshi et al.; cited from earlier work
[3] = cited from earlier work
[4] = Expected serum concentration after intranasal nalmefene spray (10 mg/ml solution, 0.1 ml per spray); assay type: in vivo, human
Method: A tartrate, stearate or palmitate formulation of nalmefene may be used, or nalmefene may be in the form of nalmefene hydrochloride, and formulated such that 1 gram of active nalmefene is mixed with 80 ml of distilled water, then adjusted to a pH of approximately 7.4 with dilute sodium hydroxide, and then isotonic saline is added along with a suitable preservative and antibacterial agent, to yield a total volume of 100 ml. This yields a nalmefene solution with a concentration of 10 mg/ml nalmefene. This final solution is passed through a 0.2 micron Millipor filter to remove bacteria and other undesired particles. The filtered solution is then placed aseptically into a container to which is then attached a metered dosing mechanism which allows approximately 0.1 ml to be delivered in each spray. An example of such a metered dosing system in found with the commercially marketed Stadol NS® (Bristol-Myers Squibb Co.). One spray to one nostril may be expected to yield a blood serum concentration of approximately 1 ng/ml 30-90 minutes after administration. […] Alternatively, the human may be given a loading dose of intravenous nalmefene and then transferred to a nasal administration regimen. A practical dosing schedule for nalmefene may be 1.5 mg intranasally every 12 hours. […]

kappa-receptor = kappa-receptor (Homo sapiens, UniProt P41145); conditions: Kreek et al.; cited from earlier work
Sequence of kappa-receptor (P41145 whole entry): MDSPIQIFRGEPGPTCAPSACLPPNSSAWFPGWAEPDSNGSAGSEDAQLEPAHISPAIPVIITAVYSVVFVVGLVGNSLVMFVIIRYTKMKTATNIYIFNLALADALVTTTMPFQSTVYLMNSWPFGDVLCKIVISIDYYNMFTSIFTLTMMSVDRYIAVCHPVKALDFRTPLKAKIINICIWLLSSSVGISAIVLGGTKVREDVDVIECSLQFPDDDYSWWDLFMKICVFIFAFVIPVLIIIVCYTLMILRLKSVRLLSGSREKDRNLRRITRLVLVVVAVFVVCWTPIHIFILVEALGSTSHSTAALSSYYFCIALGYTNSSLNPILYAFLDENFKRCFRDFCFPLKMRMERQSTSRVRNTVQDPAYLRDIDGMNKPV

[5] = single dose after acute spinal cord injury; Behrmann et al.; cited from earlier work

Sequence of intraspinal kappa receptors (P34975 whole entry): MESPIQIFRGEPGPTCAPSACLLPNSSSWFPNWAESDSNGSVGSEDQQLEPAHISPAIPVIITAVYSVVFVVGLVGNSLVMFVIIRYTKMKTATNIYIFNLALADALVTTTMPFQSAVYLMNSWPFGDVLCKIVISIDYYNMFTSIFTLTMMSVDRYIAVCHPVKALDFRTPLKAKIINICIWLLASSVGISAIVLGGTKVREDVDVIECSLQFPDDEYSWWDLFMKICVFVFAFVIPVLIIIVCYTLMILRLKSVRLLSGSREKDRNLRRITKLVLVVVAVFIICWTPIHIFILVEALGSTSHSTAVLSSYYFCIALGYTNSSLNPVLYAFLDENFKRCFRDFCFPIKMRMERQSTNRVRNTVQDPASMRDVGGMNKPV

SMILES | first pass metabolism [1] | effect on dynorphin induced motor dysfunction [2] | average volume of distribution (Vd) ([3]; approximate average in non-elderly adult humans) [L/kg] | serum half life ([3]; in vivo) | elimination constant (Ke) ([3]; value furnished by a distributor of nalmefene) [h⁻¹] | steady state serum concentration ([4]; 5 consecutive 1 mg intranasal doses approximately 11 hours apart) | blood serum concentration after one spray ([4]; one 0.1 ml spray of 10 mg/ml solution to one nostril, 30-90 minutes after administration) | potency as kappa-receptor antagonist compared with other antagonists (kappa-receptor) | effect on neurological recovery / neuroprotection [5]
O=C1CC[C@@]2(O)[C@H]3Cc4ccc(O)c5c4[C@@]2(CCN3CC2CC2)[C@H]1O5 [naltrexone] | very significant first pass metabolism | – | – | – | – | – | – | – | –
C=C1CC[C@@]2(O)[C@H]3Cc4ccc(O)c5c4[C@@]2(CCN3CC2CC2)[C@H]1O5 [nalmefene] | very significant first pass metabolism | limits dynorphin induced motor dysfunction | ~8.6 | approximately 10.8 hours | 0.0642 | approximately 1 ng/ml | approximately 1 ng/ml | more potent than either naloxone or naltrexone | significant neuroprotective effect
